In US20160113911A1, “METHODS AND COMPOSITIONS FOR THE TREATMENT OF CANCER” (THE GENERAL HOSPITAL CORPORATION, priority 2013, published 2016):
“Also recorded” adds a separate entry of the source.

How the values were obtained:
Assay type in all cases: cell-based, human
[1] = test system: 1q12h copy gain in RPE cells; experiment: FISH for site-specific copy gain; conditions: RPE cells; 1% O2 24 hours; JIB-04 62.5 nM or 2 mM succinate pre-treatment, or overexpression
Experimental: FISH was performed as described in (Manning et al., 2010). Probes for 1q12h, 1q telomere, and chromosome 2, 6, 8, and X alpha satellite were purchased from Rainbow Scientific. Probes for 1q12 (RP11-80L2), Xq13.2 (RP11-451A22), Xq13.1 (RP11-177A4) were purchased as BAC clones from Children's Hospital Oakland Research Institute (CHORI BacPac) FISH verified clone repository. Oligonucleotide probes for 1q21.2 (BCL9) and 1q23.3 were purchased from Agilent (SureFISH). BACS were prepared utilizing PureLink HiPure Plasmid Filter Maxiprep kit (Life Technologies) using the recommended modified wash buffer. Probes were nick translated (Abbot Molecular Kit) in the presence of fluorescently labeled dTTP (Enzo Life Science). Images of multiple planes of fields of nuclei were acquired on an Olympus IX81 Spinning Disk Microscope and analyzed using Slidebook 5.0 software. We used a conservative scoring metric for copy gain. Any foci that were touching were scored as a single foci to prevent increased numbers due to normally replicated foci. For RPE cells, copy gain was scored as any cell with 3 or more distinct foci. For 293T cells, copy gain was scored for any cell with 5 or more distinct foci. For RPE cells each experiment includes at least one replicate from the two different polyclonal stable cell preparations. At least 100 cells for each replicate were scored for all experiments except analysis of single cell clones.
Cells were plated onto culture dishes and allowed to adhere for 20-24 hrs in normoxia (5% CO2, 21% O2, and 74% N2). For hypoxic treatment, cells were maintained in a HERA Cell 150™ incubator (Thermo Scientific) flushed with 5% CO2, 1% O2 or 4% O2, and balanced with N2 for the duration of the experiment. Incubator calibrations were carried out by Bianchi Associates Calibrations/Verifications.
To release, cells were washed twice with culture medium pre-conditioned in normoxia or hypoxia, and supplied with fresh pre-conditioned media. For JIB-04 treatment, normoxic cells were pre-treated with 62.5 nM JIB-04 (Xcessbio) for 24 hrs, then treated again with JIB-04 and either transferred to 1% O2 or maintained in normoxia for an additional 24 hrs. Succinate was administered at a final concentration of 2 mM and cells were either maintained in normoxia for 72 hrs or maintained in normoxia for 48 hrs prior to being transferred to 1% O2 for 24 hrs.
FISH was performed as described in (Black et al., 2013; Manning et al., 2010). Probes for 1q12h, 1q telomere, chromosome 8 centromere (alpha satellite), and X centromere (alpha satellite) were purchased from Rainbow Scientific. Probes for Xq13.1 (RP11-177A4), Zebrafish BCL9 (CH73-15J19) and Zebrafish IGBP1 (CH73-223D24) were purchased as BAC clones from Children's Hospital Oakland Research Institute (CHORI BacPac) clone repository. Probes for 1q21.2 (BCL9) and 1q23.3 were purchased from Agilent (SureFISH).
FISH was performed as described in (Black et al., 2013; Manning et al., 2010). Probes for 1q12h, 1q telomere, chromosome 8 centromere (alpha satellite), and X centromere (alpha satellite) were purchased from Rainbow Scientific. Probes for Xq13.1 (RP11-177A4), Zebrafish BCL9 (CH73-15J19) and Zebrafish IGBP1 (CH73-223D24) were purchased as BAC clones from Children's Hospital Oakland Research Institute (CHORI BacPac) clone repository. Probes for 1q21.2 (BCL9) and 1q23.3 were purchased from Agilent (SureFISH). BACS were prepared utilizing PureLink HiPure™ Plasmid Filter Maxiprep kit (Life Technologies) using the recommended modified wash buffer. Probes were nick translated (Abbot Molecular Kit) in the presence of fluorescently labeled dTTP (Enzo Life Science). Images of multiple planes of fields of nuclei were acquired on an Olympus IX81 T Spinning Disk Microscope and analyzed using Slidebook™ 5.0 software. A conservative scoring metric was used for copy gain. Any foci that were touching were scored as a single copy to prevent increased numbers due to normally replicated foci.

overall translation = experiment: Translation assay (AHA incorporation, Click-IT); conditions: HEK 293T; 24h; 250 nM JIB-04 and 0.1 ng/ml Rapamycin
Experimental: Translation assays were performed following supplier's instructions from Click-IT™ Metabolic Labeling Reagents for Proteins (Life Technologies). Cells were incubated in presence of DMEM without Cysteine and Methionine for 1 h, then grown in presence of 50 μM AHA (L-azidohomoalanine, Life Technologies C10102) for 2h, harvested and washed extensively with PBS. Cells were lysed in 1% SDS in 50 mM Tris pH8 with 10% Glycerol and sonicated using a bath sonicator (QSonica™ Q800R) for 30 min. The Click-IT reactions were performed following the supplier's instructions from Click-IT™ Protein Reaction Buffer Kit (Life Technologies). Briefly, 50 μg to 100 μg of lysates were used per reaction with 40 μM Alkyne-Biotin (Life Technologies B10185), and 10 μg were assayed by western blot using a Streptavidin antibody conjugated to HRP.

HEK 293T cells [2] = experiment: Monitored cell proliferation assay (xCELLigence growth curves, doubling time); conditions: HEK293T
Experimental: Seventy two hours post transfection 1×10^4 HEK 293T cells were seeded per well of a 96 well plate, and then treated after 24h. Cell proliferation was monitored with an xCELLigence system (Roche) (Vistejnova et al., 2009).

translation initiation = experiment: Polysome profiles; conditions: 293T cells
KDM4A = KDM4A protein levels by western blot; conditions: RPE cells; 1% O2
Experimental: Western blot analyses were performed according to (Black et al., 2010).
Western blots were performed as in (Black et al., 2010). Briefly, adherent cells were either scraped directly into PBS, or washed with PBS, trypsinized and collected by centrifuging at 2,000 RPM for 5 minutes. For preparation of whole-cell lysates, cell pellets were washed once in ice-cold PBS and resuspended in RIPA lysis buffer [50 mM Tris pH 7.4, 150 mM NaCl, 0.25% Sodium Deoxycholate, 1% NP40, 1 mM EDTA, 10% Glycerol] supplemented with complete protease inhibitor and PhosSTOP™ phosphatase inhibitor cocktails (Roche). Cells were lysed on ice for 15 minutes and immediately frozen at −80° C. for 10 min. Lysates were subsequently sonicated at 70% amplitude for 15 minutes in a QSonica Q800R™ and cleared of cell debris by centrifuging at 12,000 RPM for 15 minutes, before being analyzed by western blotting. For HIF1α expression, adherent cells were washed twice with ice-cold PBS and scraped directly in warmed 1× Laemmli buffer. Samples were sonicated at 70% amplitude for 15 minutes and boiled immediately prior to western blotting.

RPE cells = experiment: Flow cytometry cell cycle analysis; conditions: normoxia and hypoxia
Experimental: Asynchronously growing, or G1/S arrested cells were prepared and fixed as in (Black et al., 2010). Cells were stained with 10 μM EdU for 1 hour prior to collection. Cell cycle was analyzed by PI staining or EdU incorporation using Click-IT EdU™ Flow Cytometry Assay Kit (Life Technologies). Flow cytometry of CD4+ T cells and cell cycle distribution were analyzed using a BD FACS ARIA II™.

HEK 293T cells [3] = experiment: MTT proliferation and viability assay; conditions: JIB-04 vs vehicle, 48h
Experimental: For tissue culture and generation of stable cell lines see (Black et al., 2010). Rapamycin (LC Laboratories) and AZD8055 (Selleckchem) were used at indicated concentrations. […] JIB-04 (Xcessbio) was used at a final concentration of 250 nM. For the translation assays, DMEM depleted of Methionine and Cysteine (Life Technologies 21013-024) was used.
MTT assays were performed following supplier's instructions from the Cell Proliferation Kit I™ (MTT) from Roche. Briefly, 1×10^4 cells were seeded per well of a 96 well plate and grown for 24h before treatment. Forty-eight hours later, cells were assayed.

Clc1ccc(N/N=C(\c2ccccc2)c2ccccn2)nc1 [JIB-04]
hypoxia-dependent copy gain of 1q12h [1]: did significantly reduce hypoxia-dependent copy gain of 1q12h | overall translation with JIB-04 and Rapamycin (overall translation): enhanced the alteration of translation observed after Rapamycin treatment | cell sensitivity to Rapamycin (doubling time between 5 h and 35 h) (HEK 293T cells [2]; 250 nM JIB-04 and 1 ng/ml of Rapamycin): increases cell sensitivity to Rapamycin | cell sensitivity to AZD8055 (doubling time between 5 h and 35 h) (HEK 293T cells [2]; 250 nM JIB-04 and 50 nM of AZD8055): increases cell sensitivity to AZD8055 | polysome profile, JIB-04 with Rapamycin (translation initiation; JIB-04 250 nM and Rapamycin 0.1 ng/ml): can sensitize cells to Rapamycin by increasing their translation initiation defect | polysome profile, JIB-04 alone (translation initiation; JIB-04 250 and 500 nM): leads to a translation initiation defect | KDM4A protein levels in hypoxia (KDM4A): did not substantially alter KDM4A protein levels in hypoxia | cell cycle profile (RPE cells): did not result in significant differences in cell cycle between normoxic and hypoxic cells | sensitivity to Rapamycin and AZD8055 upon JIB-04 co-treatment (HEK 293T cells [3]): enhanced the effect of both Rapamycin and AZD8055; also recorded: more sensitive to Rapamycin and AZD8055 than cells treated with vehicle
